Data from US6855730B2, “3-methylidenyl-2-indolinone modulators of protein kinase” (Sugen, Inc., priority 1998, dated 2005).

Key:
A431 cells = assay: A431 growth assay (2% FBS); assay type: cell-based; conditions: Homo sapiens, A-431, read-out: A431 growth (2% FBS) IC50
EGFR = EGFR (Homo sapiens, UniProt P00533); assay: Biochemical EGFR assay (ELISA, A431 cell lysate); parameters: A431 cell lysate (Screening Lab, SUGEN, Inc.); host or cells: A431; conditions: read-out: bio EGFr IC50
In short: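 EGFR captured from A431 cell lysate onto anti-EGFR-coated plates, then incubated with test compound for 30 min at room temperature. Tyrosine phosphorylation with ATP/MnCl2 was stopped with EDTA after 5 min and detected by anti-phosphotyrosine ELISA with peroxidase/ABTS read-out.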

SKOV3 cells = assay: SKOV3 growth assay (2% FBS); assay type: cell-based; conditions: Homo sapiens, SK-OV-3, read-out: SKOV3 growth (2% FBS) IC50

EGFR, sequence (P00533 25-1210): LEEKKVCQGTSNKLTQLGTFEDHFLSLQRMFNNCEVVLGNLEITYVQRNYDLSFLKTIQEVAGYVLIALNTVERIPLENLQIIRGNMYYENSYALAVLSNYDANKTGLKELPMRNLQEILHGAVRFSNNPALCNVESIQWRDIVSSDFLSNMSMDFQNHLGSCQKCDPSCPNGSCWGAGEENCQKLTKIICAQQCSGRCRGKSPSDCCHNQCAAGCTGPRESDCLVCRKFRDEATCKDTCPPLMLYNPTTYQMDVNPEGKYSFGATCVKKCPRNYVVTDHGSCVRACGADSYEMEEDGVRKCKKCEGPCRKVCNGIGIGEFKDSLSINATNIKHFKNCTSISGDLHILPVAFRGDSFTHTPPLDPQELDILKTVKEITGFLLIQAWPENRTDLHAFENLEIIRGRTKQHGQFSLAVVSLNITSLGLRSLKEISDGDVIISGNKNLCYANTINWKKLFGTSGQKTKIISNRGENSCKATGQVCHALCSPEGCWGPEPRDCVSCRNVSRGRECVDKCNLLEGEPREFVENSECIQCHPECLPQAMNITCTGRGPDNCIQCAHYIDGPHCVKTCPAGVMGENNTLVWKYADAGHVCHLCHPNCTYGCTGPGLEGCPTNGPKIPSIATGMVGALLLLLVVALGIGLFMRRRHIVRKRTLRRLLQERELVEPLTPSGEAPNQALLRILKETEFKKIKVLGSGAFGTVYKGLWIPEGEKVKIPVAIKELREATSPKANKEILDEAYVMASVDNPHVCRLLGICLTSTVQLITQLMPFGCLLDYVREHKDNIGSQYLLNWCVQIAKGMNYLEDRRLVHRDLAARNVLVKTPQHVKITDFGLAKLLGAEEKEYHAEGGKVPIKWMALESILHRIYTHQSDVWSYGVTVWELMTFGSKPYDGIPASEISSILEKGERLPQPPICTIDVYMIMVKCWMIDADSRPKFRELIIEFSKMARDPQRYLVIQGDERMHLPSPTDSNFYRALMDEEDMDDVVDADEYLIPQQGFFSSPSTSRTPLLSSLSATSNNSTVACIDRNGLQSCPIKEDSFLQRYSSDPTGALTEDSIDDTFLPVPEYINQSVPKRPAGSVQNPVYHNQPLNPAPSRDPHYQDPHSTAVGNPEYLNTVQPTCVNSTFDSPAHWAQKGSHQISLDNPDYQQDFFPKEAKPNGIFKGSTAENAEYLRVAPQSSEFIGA

SMILES | IC50 (A431 cells) | IC50 (EGFR) | IC50 (SKOV3 cells)
COc1c(C(C)C)cc(/C=C2/C(=O)Nc3cc(O)ccc32)cc1C(C)C [Example 4, 3-(3,5-Diisopropyl-4-methoxybenzylidene)-6-hydroxy-1,3-dihydroindol-2-one] | 5.1 µM | > 100 µM | 7 µM
COc1c(C)cc(/C=C2/C(=O)Nc3ccc(Cl)cc32)cc1C [Example 21, 5-Chloro-3-(4-methoxy-3,5-dimethylbenzylidene)-1,3-dihydroindol-2-one] | 15.3 µM | > 100 µM | 13 µM
COc1cc(C)c(C=C2C(=O)Nc3ccc(Cl)cc32)cc1C(C)C [Example 9, 5-Chloro-3-(5-isopropyl-4-methoxy-2-methylbenzylidene)-1,3-dihydroindol-2-one] | 17.3 µM | > 100 µM | 14.5 µM
CC(=O)Nc1ccc2c(c1)NC(=O)/C2=C\c1ccc2c(c1)CCC(C)(C)O2 [Example 33, N-[3-(2,2-Dimethylchroman-6-ylmethylene)-2-oxo-2,3-dihydro-1H-indol-6-yl]-acetamide] | 6.7 µM | > 100 µM | 10.3 µM
CC1(C)CCc2cc(C=C3C(=O)Nc4ccc(Br)cc43)ccc2O1 (racemic) [Example 34, 5-Bromo-3-(2,2-dimethylchroman-6-ylmethylene)-1,3-dihydroindol-2-one] | 4.4 µM | > 100 µM | 7.6 µM
CC(=O)Nc1ccc2c(c1)NC(=O)/C2=C/c1ccc(OCCN2CCOCC2)c(C2CCCCC2)c1 [Example 16, N-{3-[3-Cyclohexyl-4-(2-morpholin-4-ylethoxy)-benzylidene]-2-oxo-2,3-dihydro-1H-indol-6-yl}-acetamide] | 4.1 µM | > 100 µM | 5.9 µM
COc1ccc(/C=C2/C(=O)Nc3ccccc32)cc1C1CCCCC1 [Example 12, 3-(3-Cyclohexyl-4-methoxybenzylidene)-1,3-dihydroindol-2-one] | 7.9 µM | > 100 µM | 10.1 µM
COc1ccc(/C=C2/C(=O)Nc3ccc(F)cc32)cc1C1CCCC1 [Example 11, 3-(3-Cyclopentyl-4-methoxybenzylidene)-5-fluoro-1,3-dihydroindol-2-one] | 12.5 µM | > 100 µM | 15 µM
COc1cc(C)c(C=C2C(=O)Nc3ccccc32)cc1C(C)C [Example 8, 3-(5-Isopropyl-4-methoxy-2-methylbenzylidene)-1,3-dihydroindol-2-one] | 0.95 µM | > 100 µM | 0.96 µM
COc1c(C(C)C)cc(/C=C2/C(=O)Nc3ccc(C(C)=O)cc32)cc1C(C)C [Example 5, 5-Acetyl-3-(3,5-diisopropyl-4-methoxybenzylidene)-1,3dihydroindol-2-one] | 4.3 µM | > 100 µM | 5.4 µM
COc1ccc2c(c1)/C(=C\c1cc(C(C)C)c(OC)c(C(C)C)c1)C(=O)N2 [Example 17, 3-(3,5-Diisopropyl-4-methoxybenzylidene)-5-methoxy-1,3-dihydroindol-2-one] | 4.3 µM | > 100 µM | 6.1 µM
COc1ccc(/C=C2/C(=O)Nc3ncccc32)cc1C1CCCC1 [Example 47, 3-(3-Cyclopentyl-4-methoxybenzylidene)-1,3-dihydropyrrolo[2,3-b]pyridin-2-one] | 40.4 µM | 36.8 µM | 46.9 µM
COc1cc(C)c(/C=C2/C(=O)Nc3ccc(Br)cc32)cc1C(C)C [Example 36, 5-Bromo-3-(5-isopropyl-4-methoxy-2-methyl-benzylidene)-1,3-dihydroindol-2-one] | > 25 µM | > 100 µM | > 25 µM
COc1ccc(/C=C2/C(=O)Nc3ccc(CCN4CCOCC4)cc32)cc1-c1ccsc1 [Example 26, 3-(4-Methoxy-3-thiophen-3-ylbenzylidene)-5-(2-morpholin-4-yl-ethyl)-1,3-dihydroindol-2-one] | 3 µM | > 100 µM | 5.4 µM
CC1(C)CCc2cc(/C=C3/C(=O)Nc4ccc(Cl)cc43)ccc2O1 [Example 15, 5-Chloro-3-(2,2-dimethyl-chroman-6-ylmethylene)-1,3-dihydroindol-2-one] | 4.8 µM | > 100 µM | 7 µM
CC(C)c1cc(/C=C2/C(=O)Nc3ccc(Cl)cc32)cc(C(C)C)c1OCCN1CCOCC1 [Example 24, 5-chloro-3-[3,5-diisopropyl-4-(2-morpholin-4-ylethoxy)-benzylidene]-1,3-dihydroindol-2-one] | 4.5 µM | > 100 µM | 6.5 µM
COc1cc(C)c(/C=C2/C(=O)Nc3ccc(F)cc32)cc1C(C)C [Example 30, 5-Fluoro-3-(5-isopropyl-4-methoxy-2-methyl-benzylidene)-1,3-dihydroindol-2-one] | 9.9 µM | > 100 µM | 16 µM
COC(=O)c1ccc2c(c1)/C(=C\c1cc(C(C)C)c(OC)c(C(C)C)c1)C(=O)N2 [Example 6, 3-(3,5-Diisopropyl-4-methoxybenzylidene)-2-oxo-2,3-dihydro-1H-indole-5-carboxylic acid methyl ester] | 2.9 µM | > 100 µM | 19.4 µM
COc1c(C(C)C)cc(/C=C2/C(=O)Nc3ccc(N)cc32)cc1C(C)C [Example 20, 5-Amino-3-(3,5-diisopropyl-4-methoxy-benzylidene)-1,3-dihydroindol-2-one] | 29.5 µM | > 100 µM | 35.5 µM
COc1c(C(C)C)cc(/C=C2/C(=O)Nc3ccc(C)cc32)cc1C(C)C [Example 19, 3-(3,5-Diisopropyl-4-methoxybenzylidene)-5-methyl-1,3-dihydroindol-2-one] | 4.3 µM | > 100 µM | 5.9 µM
CC1(C)CCc2cc(/C=C3/C(=O)Nc4ccc(F)cc43)ccc2O1 [Example 23, 3-(2,2-Dimethylchroman-6-ylmethylene)-5-fluoro-1,3-dihydroindol-2-one] | 14.5 µM | > 100 µM | 17.8 µM

Second part, the compound after the results:

IC50 (A431 cells) | IC50 (EGFR) | IC50 (SKOV3 cells) | SMILES
6 µM | > 100 µM | 6.1 µM | COc1cc(/C=C2/C(=O)Nc3ccccc32)c(-c2ccc3ccccc3c2)cc1OC [Example 62, 3-(4,5-Dimethoxy-2-naphthalen-2-ylbenzylidene)-1,3-dihydroindol-2-one]
9 µM | > 100 µM | 21.3 µM | COc1ccc(/C=C2/C(=O)Nc3ccc(Br)cc32)cc1-c1ccccc1 [Example 13, 5-Bromo-3-(6-methoxybiphenyl-3-ylmethylene)-1,3-dihydroindol-2-one]
1.2 µM | > 100 µM | 2.5 µM | COc1ccc(/C=C2/C(=O)Nc3ccccc32)cc1C(C)C [Example 7, 3-(3-Isopropyl-4-methoxybenzylidene)-1,3-dihydroindol-2-one]
8.5 µM | > 100 µM | 11.2 µM | COc1ccc(/C=C2/C(=O)Nc3ccccc32)cc1C1CCCC1 [Example 10, 3-(3-Cyclopentyl-4-methoxybenzylidene)-1,3-dihydroindol-2-one]
6 µM | > 100 µM | 17.2 µM | COc1ccc(/C=C2/C(=O)Nc3ccc(Cl)cc32)cc1-c1cccs1 [Example 59, 5-chloro-3-(4-Methoxy-3-thiophen-2-ylbenzylidene)-1,3-dihydroindol-2-one]
> 25 µM | > 100 µM | > 25 µM | COc1cccc(-c2cc(OC)c(OC)cc2/C=C2/C(=O)Nc3ccc(Cl)cc32)c1 [Example 61, 5-Chloro-3-(4,5-3′-Trimethoxybiphenyl-2-ylmethylene)-1,3-dihydroindol-2-one]
10.5 µM | > 100 µM | 22 µM | CCOc1cccc(-c2cc(OC)c(OC)cc2/C=C2/C(=O)Nc3ccccc32)c1 [Example 58, 3-(3′-Ethoxy-4,5-dimethoxybiphenyl-2-ylmethylene)-1,3-dihydroindol-2-one]
9.2 µM | > 100 µM | 9.6 µM | COc1cc(/C=C2/C(=O)Nc3ccccc32)c(-c2cccs2)cc1OC [Example 39, 3-(4,5-Dimethoxy-2-thiophen-2-ylbenzylidene)-1,3-dihydroindol-2-one]
0.6 µM | > 100 µM | 1 µM | COc1ccc(/C=C2/C(=O)Nc3cc(NC(C)=O)ccc32)cc1-c1ccsc1 [Example 18, N-[3-(4-Methoxy-3-thiophene-3-ylbenzylidene)-2-oxo-2,3-dihydro-1H-indol-6-yl]-acetamide]
5.6 µM | > 100 µM | 7.9 µM | COc1ccc(C=C2C(=O)Nc3ccccc32)cc1-c1cccc(NC(C)=O)c1 [Example 29, N-[2′-Methoxy-5′-(2-oxo-1,2-dihydroindol-3-ylidenemethyl)-biphenyl-3-yl]-acetamide]
5.9 µM | > 100 µM | 4.8 µM | COc1ccc(/C=C2/C(=O)Nc3ccc(Cl)cc32)cc1-c1cccnc1 [Example 60]
5.5 µM | > 100 µM | 7.7 µM | CCOc1cccc(-c2cc(C=C3C(=O)Nc4ccccc43)ccc2OC)c1 [Example 46, 3-(3′-Ethoxy-6-methoxybiphenyl-3-ylmethylene)-1,3-dihydroindol-2-one]
0.3 µM | > 100 µM | 0.4 µM | COc1ccc(/C=C2/C(=O)Nc3cc(NC(C)=O)ccc32)cc1-c1cccs1 [Example 31, N-[3-(4-Methoxy-3-thiophen-2-ylbenzylidene)-2-oxo-2,3-dihydro-1H-indol-6-yl]-acetamide]
20.7 µM | > 100 µM | 20.6 µM | COc1cc(C=C2C(=O)Nc3ccccc32)c(-c2ccccc2OC)cc1OC [Example 49, 3-(4,5,2′-Trimethoxybiphenyl-2-ylmethylene)-1,3-dihydroindol-2-one]
